Results taken from patent publication US20100210649A1, “PYRIDAZINONES AND FURAN-CONTAINING COMPOUNDS” (Sloan-Kettering Institute for Cancer Research, priority 2006, published 2010).
Where two headings read alike, the source gives them in different places.

Tests used:
Type in all cases: cell-based, human
Conditions in all cases: Homo sapiens
H1975 = assay: Non Small Cell Lung Cancer proliferation assay (Alamar Blue reduction), H1975
Protocol: (§1) These cells have a doubling time of 1-2 days. All cell types are adherent and grow in colonies. The cells should be kept at a density between 50,000 cells/mL -500,000 cells/mL to provide for optimum growth and adequate nutrition. The cell line should be maintained at 37° C. in a humidified atmosphere with 5% CO2 in a sterile cell culture incubator.
(§2) Non Small Cell Lung Cancer Proliferation Assay.
(§3) High Controls for this assay are made by treating Non Small Cell Lung Cancer cells with 5 ul of 10% DMSO. [Final concentration in this assay is 1% DMSO].
(§4) Important Note: All compounds for testing in this assay should be done at the final concentration of 1% DMSO.
(§5) After addition, the cells are placed in cell culture incubator at 37° C. for 48 hours for complete treatment.
(§6) After drug treatment, cytotoxicity is measured by Alamar Blue reduction.
(§7) The cells are incubated for 48 hours at 37° C. to complete the Alamar Blue reduction.
(§8) The final step in the assay is to measure the amount of Alamar Blue reduction. […] The Alamar Blue fluorescence is measured at an excitation of 530 nm and emission of 590 nm.
(§9) For the NSCLC project, the cell based assay was screened against a small molecule library of approximately 200,000 compounds. The compound library is stored in our automated robotic freezer (Biophile) at −20° C. in 100% DMSO. Compound freeze and thaw cycles are kept to a minimum. […] This assay was performed on a fully automated linear track robotic platform (CRS F3 Robot System, Thermo Electron Corp., Ontario, Canada) utilizing several integrated peripherals for plate handling, liquid dispensing, and readout detection. […] The microplates are then placed at 37° C. for 48 hours to complete treatment of cells with compounds. Next, 5 ul of alamar blue was added using a liquid dispenser (Flexprop Precision Dispenser, Perkin Elmer, Mass., USA) and incubated for 48 hours at 37° C. The alamar blue prompt fluorescence was measured on Victor V (Victor^3 V, Perkin Elmer, Mass., USA) and output data files were loaded into ORIS (Oncology Research Informatics System, MSKCC, NY, USA), a screening data acquisition and analysis platform.
(§10) The dose response studies were done with the following standard procedure. First, the cells were counted and dispensed at 250 cells/well into 384-well microplates with compound. The cells were incubated for 48 hours at 37 C to complete treatment, and then alamar blue was added for an additional 48 hours. Finally, alamar blue reduction was measured and the data was loaded into ORIS, our data screening acquisition platform.

H3255 = assay: Non Small Cell Lung Cancer proliferation assay (Alamar Blue reduction), H3255
Protocol: as §1, §2, §3, §4, §5, §6, §7, §8, §9, §10

H2030 = assay: Non Small Cell Lung Cancer proliferation assay (Alamar Blue reduction), H2030
Protocol: as §1, §2, §3, §4, §5, §6, §7, §8, §9, §10

H1650 = assay: Non Small Cell Lung Cancer proliferation assay (Alamar Blue reduction), H1650
Protocol: as §1, §2, §3, §4, §5, §6, §7, §8, §9, §10

[1] = NCI-H1975, primary screening, 10 μM compound in 1% DMSO (v/v), read-out: percentage inhibition H1975
[2] = NCI-H3255, primary screening, 10 μM compound in 1% DMSO (v/v), read-out: percentage inhibition H3255
[3] = NCI-H2030, primary screening, 10 μM compound in 1% DMSO (v/v), read-out: percentage inhibition H2030
[4] = NCI-H1650, primary screening, 10 μM compound in 1% DMSO (v/v), read-out: percentage inhibition H1650
[5] = NCI-H1975, primary screening, H1975, 10 μM compound in 1% DMSO (v/v), read-out: PRIMARY HTS [%] H1975 (percentage inhibition)
[6] = NCI-H3255, primary screening, H3255, 10 μM compound in 1% DMSO (v/v), read-out: PRIMARY HTS [%] H3255 (percentage inhibition)
[7] = NCI-H2030, primary screening, H2030, 10 μM compound in 1% DMSO (v/v), read-out: PRIMARY HTS [%] H2030 (percentage inhibition)
[8] = NCI-H1650, primary screening, H1650, 10 μM compound in 1% DMSO (v/v), read-out: PRIMARY HTS [%] H1650 (percentage inhibition)

SMILES | inhibition at 10 µM (H1975; [1]) [%] | inhibition at 10 µM (H3255; [2]) [%] | inhibition at 10 µM (H2030; [3]) [%] | inhibition at 10 µM (H1650; [4]) [%] | also measured
O=C(Nc1ccc(I)cc1)c1ccc([N+](=O)[O-])o1 [compound 103710] | – | – | – | – | inhibition at 10 µM (H1975; NCI-H1975, read-out: PRIMARY HTS [%] H1975 (percentage inhibition)): 17%; inhibition at 10 µM (H3255; NCI-H3255, read-out: PRIMARY HTS [%] H3255 (percentage inhibition)): 4%; inhibition at 10 µM (H2030; NCI-H2030, read-out: PRIMARY HTS [%] H2030 (percentage inhibition)): -5%; inhibition at 10 µM (H1650; NCI-H1650, read-out: PRIMARY HTS [%] H1650 (percentage inhibition)): 33%
O=c1c(Cl)c(Cl)cnn1-c1ccc(Cl)c(C(F)(F)F)c1 [compound 103719] | 102 | 76 | 94 | 45 | –
O=c1c(Cl)c(Cl)c(O)nn1-c1ccccc1 [compound 103751] | -4 | 0 | -4 | 6 | –
O=c1c(Cl)c(N2CCCC2)cnn1-c1ccccc1 [compound 103868] | -18 | -3 | -4 | -7 | –
COc1cnn(-c2cccc(C(F)(F)F)c2)c(=O)c1Cl [compound 103872] | 9 | -25 | 2 | 17 | –
CN(C)c1c(Cl)cnn(-c2ccccc2)c1=O [compound 103911] | -12 | -3 | -5 | -7 | –
CCc1ccccc1NC(=O)c1ccc([N+](=O)[O-])o1 [compound 103960] | – | – | – | – | inhibition at 10 µM (H1975; [5]): 41%; inhibition at 10 µM (H3255; [6]): 68%; inhibition at 10 µM (H2030; [7]): 73%; inhibition at 10 µM (H1650; [8]): 62%
COc1cnn(-c2ccccc2)c(=O)c1N(C)C [compound 103971] | -10 | -1 | 1 | 5 | –
CCSc1cnn(-c2ccccc2)c(=O)c1Cl [compound 103997] | 98 | 2 | 9 | -15 | –
CN(C(=O)c1ccc([N+](=O)[O-])o1)c1ccccc1 [compound 104003] | – | – | – | – | inhibition at 10 µM (H1975; [5]): 18%; inhibition at 10 µM (H3255; [6]): 5%; inhibition at 10 µM (H2030; [7]): 0%; inhibition at 10 µM (H1650; [8]): -3%
O=c1c(Cl)c(Cl)cnn1-c1ccc(Cl)cc1 [compound 104004] | 98 | 90 | 75 | 1 | –
O=C(Nc1cc(C(F)(F)F)ccc1Cl)c1ccc([N+](=O)[O-])o1 [compound 104039] | – | – | – | – | inhibition at 10 µM (H1975; [5]): 69%; inhibition at 10 µM (H3255; [6]): 6%; inhibition at 10 µM (H2030; [7]): 13%; inhibition at 10 µM (H1650; [8]): 61%
CSc1cnn(-c2ccccc2)c(=O)c1Cl [compound 104185] | 22 | 1 | -2 | -9 | –
O=c1c(Cl)c(Cl)cnn1-c1cccc(Cl)c1 [compound 104188] | 102 | 4 | -4 | -13 | –
CCOc1cnn(-c2ccccc2)c(=O)c1Cl [compound 104217] | -7 | -1 | 6 | -15 | –
CCOc1c(Cl)cnn(-c2ccccc2)c1=O [compound 104288] | 102 | 46 | 66 | -13 | –
O=c1c(N2CCCC2)c(Cl)cnn1-c1ccccc1 [compound 104304] | 98 | 107 | 14 | 52 | –
